From ChEMBL document CHEMBL1140758, “Chemoenzymatic synthesis and antiviral evaluation of conformationally constrained and 3'-methyl-branched carbanucleosides using both enantiomers of the same building block” (Bioorg Med Chem, 2008)
Activity calls are given as the source filed them.

Key:
Assay type in all cases: functional, organism-based
Human alphaherpesvirus 2 = assay: Antiviral activity against HSV2 G in HEL cells at 100 ug/mL
Human alphaherpesvirus 1 [1] = assay: Antiviral activity against HSV1 KOS in HEL cells at 100 ug/mL
Vaccinia virus = assay: Antiviral activity against vaccinia virus in HEL cells at 100 ug/mL; settings: Orthopoxvirus vaccinia
[2] = test system: Vesicular stomatitis virus; assay: Antiviral activity against VSV in HEL cells at 100 ug/mL
Human alphaherpesvirus 1 [3] = assay: Antiviral activity against thymidine kinase deficient HSV1 KOS in HEL cells at 100 ug/mL
Human respirovirus 3 = assay: Antiviral activity against parainfluenza 3 virus in Vero cells at 100 ug/mL
[4] = test system: Mammalian orthoreovirus 1; assay: Antiviral activity against Reovirus1 in Vero cells at 100 ug/mL
Sindbis virus = assay: Antiviral activity against Sindbis virus in Vero cells at 100 ug/mL
Coxsackievirus B4 [5] = assay: Antiviral activity against Coxsackie virus B4 in Vero cells at 100 ug/mL
Punta Toro virus = assay: Antiviral activity against Punta Toro virus in Vero cells at 100 ug/mL
[6] = test system: Vesicular stomatitis virus; assay: Antiviral activity against VSV in HeLa cells at 100 ug/mL
Coxsackievirus B4 [7] = assay: Antiviral activity against Coxsackie virus B4 in HeLa cells at 100 ug/mL
[8] = test system: Respiratory syncytial virus; assay: Antiviral activity against RSV in HeLa cells at 100 ug/mL
Influenza A virus [9] = assay: Antiviral activity against influenza A virus H3N2 in MDCK cells at 100 ug/mL
Influenza A virus [10] = assay: Antiviral activity against influenza A virus H1N1 in MDCK cells at 100 ug/mL
Influenza B virus = assay: Antiviral activity against influenza B virus in MDCK cells at 100 ug/mL

Measured: Activity

C[C@]12O[C@H]1[C@H](n1cnc3c(N)ncnc31)C[C@@H]2CO
inactive: all assays above

C[C@]12O[C@H]1[C@H](n1cnc3c(NC4CC4)ncnc31)C[C@@H]2CO
inactive: all assays above

C[C@]12O[C@H]1[C@H](n1cnc3c(NC4CC4)nc(N)nc31)C[C@@H]2CO
inactive: all assays above

C[C@]12C[C@H](n3cnc4c(N)ncnc43)C[C@@]1(CO)O2
inactive: all assays above

C[C@]12C[C@H](n3cnc4c(NC5CC5)nc(N)nc43)C[C@@]1(CO)O2
inactive: all assays above

C[C@]12C[C@H](n3cnc4c(NC5CC5)ncnc43)C[C@@]1(CO)O2
inactive: all assays above
